{"source": "BindingDB's records for doi:10.1021/acs.jmedchem.0c00656", "about": "(2020)", "target": "T1, Vitamin D3 receptor A (Danio rerio, UniProt Q9PTN2)", "T1 sequence (Q9PTN2 whole entry)": "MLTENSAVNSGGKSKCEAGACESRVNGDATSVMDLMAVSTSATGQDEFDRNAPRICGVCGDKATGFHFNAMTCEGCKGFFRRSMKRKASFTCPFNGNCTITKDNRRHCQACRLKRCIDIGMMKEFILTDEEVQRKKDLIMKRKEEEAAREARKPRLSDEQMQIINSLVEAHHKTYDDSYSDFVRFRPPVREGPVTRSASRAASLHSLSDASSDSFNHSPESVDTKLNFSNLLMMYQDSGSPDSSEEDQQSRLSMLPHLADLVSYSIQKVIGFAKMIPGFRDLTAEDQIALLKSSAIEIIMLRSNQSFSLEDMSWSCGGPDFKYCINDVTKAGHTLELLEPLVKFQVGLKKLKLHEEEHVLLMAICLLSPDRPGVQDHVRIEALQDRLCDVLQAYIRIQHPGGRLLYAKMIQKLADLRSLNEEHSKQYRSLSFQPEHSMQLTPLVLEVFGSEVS", "assay": "Binding affinity to zebrafish VDR LBD assessed as Kd for fluorescein-labeled SRC1 NR2 peptide binding by micro-scale thermophoresis method"}
{"molecule": "C=C1/C(=C\\C=C2/CCC[C@]3(C)[C@@H]([C@H](C)/C=C/[C@@H](O)C4(/C=C/C(=O)OCC)CC4)CC[C@@H]23)C[C@@H](O)C[C@@H]1O", "values": [{"measurement": "Kd", "value": "> 30", "unit": "µM"}]}
